Source: patent US9951226B2, “Compound based on cyanine scaffold for diagnosis sepsis by selectively detect glutathione” (EWHA UNIVERSITY—INDUSTRY COLLABORATION FOUNDATION, priority 2014, dated 2018)

What was measured:
C57BL/6 mouse [1] = assay: Detection of glutathione in a mouse model with N-methylmaleimide (NMM), IVIS imaging; type: in vivo
Protocol: 200 μL of HEPES (4-(2-hydroxyethyl)piperazine-1-ethanesulfonic acid) buffer (10 mM, pH=7.4) containing 20 mM of N-methylmaleimide (NMM) known as a thiol blocker was administered to each C57BL/6 mouse (7˜8 weeks old, female, Jackson Laboratory) via intravenous injection. 20 minutes later, 200 μL of HEPES (4-(2-hydroxyethyl)piperazine-1-ethanesulfonic acid) buffer (10 mM, pH=7.4) containing 50 mM of the compound prepared in Example 2 was administered to the mouse via intravenous injection. 20 minutes later, the strength of fluorescence was observed by using the epifluorescence mode of In Vivo Imaging System (IVIS) spectrum (Caliper LifeSciences, USA) equipped with the filter having the wavelengths of 675 nm and 720 nm [the strength of fluorescence was measured by Living Image Software 4.3.1 (Caliper Life Sciences, USA)].

RAW 264.7 cells = assay: Changes of glutathione concentration in the presence of an oxidant (peroxynitrite), RAW 264.7 cells; type: cell-based; settings: for red fluorescence under confocal laser scanning microscope: 20 μM compound
Protocol: RAW 264.7 cells (macrophage cell line, Korea Cell Line Bank) were cultured in RPMI 1640 (Roswell Park Memorial Institute) supplemented with 10% heat-inactivated fetal bovine serum (FBS), 100 U/mL penicillin, and 100 U/mL streptomycin in a 37° C. 5% CO2 incubator.
RAW 264.7 cells displaying the characteristics of generating ROS (Reactive Oxygen Species) or RNS (Reactive Nitrogen Species) were treated with 1 μg/mL of lipopolysaccharide (LPS) for 20 minutes, 50 ng/mL of interferon-γ for 16 hours, and 20 μM of phorbol 12-myristate 13-acetate (PMA) for 20 minutes in order to induce the generation of endogenous feroxynitrite having the characteristics of an oxidant. Then, the cells were seeded in 35-mm glass bottomed dishes at the density of 3×10^5 cells/dish in 1640 medium. 24 hours later, the compound prepared in Example 2 was treated thereto at the concentration of 20 μM for 20 minutes. The cells were washed with DPBS (Dulbecco's Phosphate Buffered Saline) three times, followed by imaging with confocal laser scanning microscope (Fluoview 1200, Olympus, Japan). At this time, the emitting filter with the excitation wavelength of 635 nm and the band-path (BP) of 655˜755 nm was used.

C57BL/6 mouse [2] = assay: Detection of glutathione in a mouse model with acetaminophen (APAP), IVIS imaging; type: in vivo
Protocol: 200 μL of HEPES (4-(2-hydroxyethyl)piperazine-1-ethanesulfonic acid) buffer (10 mM, pH=7.4) containing 300 mg/kg of acetaminophen (APAP) known as a pain killer was administered to each C57BL/6 mouse (7˜8 weeks old, female, Jackson Laboratory) via intravenous injection. The said APAP works as a pain killer in vivo when administered at a proper dose, but when treated at over-dose, it can damage organs and also reduce in vivo glutathione. 20 minutes later, 200 μL of HEPES (4-(2-hydroxyethyl)piperazine-1-ethanesulfonic acid) buffer (10 mM, pH=7.4) containing 50 mM of the compound prepared in Example 2 was administered to the mouse via intravenous injection. 20 minutes later, the strength of fluorescence was observed by using the epifluorescence mode of In Vivo Imaging System (IVIS) spectrum (Caliper LifeSciences, USA) equipped with the filter having the wavelengths of 675 nm and 720 nm [the strength of fluorescence was measured by Living Image Software 4.3.1 (Caliper Life Sciences, USA)].

HeLa cells = assay: Detection of intracellular biothiol in HeLa cells, confocal laser scanning microscope; type: cell-based, human; settings: 10 μM compound
Protocol: HeLa cells (human adenocarcinoma cells, Korea Cell Line Bank) were cultured in RPMI 1640 (Roswell Park Memorial Institute) supplemented with 10% heat-inactivated fetal bovine serum (FBS), 100 U/mL penicillin, and 100 U/mL streptomycin in a 37° C. 5% CO2 incubator. The cells were either treated or not treated with 1 mM of N-methylmaleimide (NMM) known as a thiol blocker for 20 minutes. 100 μM of each amino acid containing thiol group (R—SH) such as cysteine, homocysteine, and glutathione was added thereto. Then, the cells were seeded in 35-mm glass bottomed dishes at the density of 3×10^5 cells/dish in 1640 medium. 24 hours later, 10 μM of the compound prepared in Example 1 was added thereto, followed by culture at 37° C. for 20 minutes. The cells were washed with DPBS (Dulbecco's Phosphate Buffered Saline) twice to eliminate the remaining compound, followed by imaging with confocal laser scanning microscope (Fluoview 1200, Olympus, Japan). At this time, the emitting filter with the excitation wavelength of 635 nm and the band-path (BP) of 655˜755 nm was used.

[3] = Absorption and fluorescence spectrum over the time after reaction with glutathione; type: biochemical; settings: 10 μM compound, 100 μM glutathione, HEPES pH 7.4, 10% DMSO
Protocol: 10 μM of the compound prepared in Example 2 and 100 μM of glutathione were added to HEPES (4-(2-hydroxyethyl)piperazine-1-ethanesulfonic acid) buffer (10 mM, pH=7.4) containing 10% dimethylsulfoxide (DMSO), followed by observation of absorption spectrum at 25° C. using UV-vis sepctra (Scinco 3000 spectrophotometer, 1 cm quartz cell) over the time. The results are shown in FIG. 8 (spectrum was photographed every 0.5 minute).
The following experiment was performed by the same manner as described in Experimental Example <5-1> except that fluorescence spectrum was observed by using RF-5310/PC fluorescence spectrometer (Shimada, 1 cm quartz cell) instead of observing absorption spectrum via UV-vis sepctra (Scinco 3000 spectrophotometer, 1 cm quartz cell) (λex=730 nm, λem=736 nm, slit:10/10 nm). The results are shown in FIG. 9 (spectrum was photographed every 0.5 minute).

[4] = mouse treated with NMM together with the compound
[5] = mouse treated with the compound alone
[6] = mouse treated with the compound alone, intravenous injection, 20 minutes

## CCCN1/C(=C/C=C2\CCCC(/C=C/C3=[N+](CCC)c4ccccc4C3(C)C)=C2N2CCN(S(=O)(=O)c3cccc4c(N(C)C)cccc34)CC2)C(C)(C)c2ccccc21.[I-] [Example 2, 2-((E)-2-((E)-3-((E)-2-(3,3-dimethyl-1-propylindolin-2-ylidene)ethylidene)-2-(4-(5-(dimethylamino)naphthalene-1-ylsulfonyl)piperazine-1-yl)cyclohex-1-enyl)binyl)-3,3-dimethyl-1-propyl-3H-indolium iodide]
C57BL/6 mouse [1]; [4]
  red fluorescence in liver, kidney, lung, and spleen, IVIS spectrum: red fluorescence was not observed
  red fluorescence of the mouse, IVIS spectrum: red fluorescence was not observed
C57BL/6 mouse [1]; [5]
  red fluorescence in liver, kidney, lung, and spleen, IVIS spectrum: strong red fluorescence was observed
C57BL/6 mouse [1]; [6]
  red fluorescence of the mouse, IVIS spectrum: strong red fluorescence was observed
RAW 264.7 cells; RAW 264.7 cells with induced peroxynitrite (LPS, interferon-γ, PMA)
  red fluorescence under confocal laser scanning microscope: red fluorescence was not observed
RAW 264.7 cells; RAW 264.7 cells, 20 minutes
  red fluorescence under confocal laser scanning microscope: strong red fluorescence
RAW 264.7 cells; RAW 264.7 cells, peroxynitrite
  reaction to oxidized glutathione, glutathione disulfide (GSSG): did not react
C57BL/6 mouse [2]; mouse treated with acetaminophen (APAP) 300 mg/kg together with the compound
  red fluorescence of the mouse, IVIS spectrum: red fluorescence was not observed
C57BL/6 mouse [2]; mouse treated with acetaminophen (APAP) together with the compound
  red fluorescence in liver, kidney, lung, and spleen, IVIS spectrum: red fluorescence was not observed
C57BL/6 mouse [2]; [5]
  red fluorescence in liver, kidney, lung, and spleen, IVIS spectrum: strong red fluorescence was observed
C57BL/6 mouse [2]; [6]
  red fluorescence of the mouse, IVIS spectrum: strong red fluorescence was observed
HeLa cells; HeLa cells pre-treated with NMM, 100 μM cysteine added
  red fluorescence under confocal laser scanning microscope: red fluorescence was not detected
HeLa cells; HeLa cells pre-treated with NMM, 100 μM glutathione added
  red fluorescence under confocal laser scanning microscope: strong red fluorescence was observed
HeLa cells; HeLa cells pre-treated with NMM, 100 μM homocysteine added
  red fluorescence under confocal laser scanning microscope: red fluorescence was not detected
HeLa cells; HeLa cells pre-treated with thiol blocker NMM 1 mM
  red fluorescence under confocal laser scanning microscope: red fluorescence was not observed
HeLa cells; HeLa cells, 20 minutes
  red fluorescence under confocal laser scanning microscope: strong red fluorescence was observed
[3]
  time to maximum fluorescence signal at 736 nm: ≤ 15 min
[3]; 25° C.
  time to minimum absorption signal at 750 nm: ≤ 15 min
